Measured values published in patent publication US9981961B2, “Deoxycytidine kinase inhibitors” (The Regents of the University of California, priority 2013, dated 2018).

What was measured:
in vitro = settings: human, microsomes
[1] = system: dCTP and dTTP pools of CEM cells; assay: Intracellular dNTP pool measurement in CEM cells; assay type: cell-based, human; settings: 24 hr, DI-39 1 μM, dT 50 μM, or both
Solubility statement = assay type: physicochemical
[2] = Pharmacokinetics of DI-39 in plasma and tumor tissue (LC/MS/MS-MRM); assay type: in vivo; settings: mouse, ip
Description: To determine the pharmacokinetic profile of DI-39, C57Bl/6 female mice were dosed with DI-39 via intraperitoneal injection following the protocol that was described previously (Murphy et al., 2013). Dose formulation include 10% DMSO and 40% Captisol (SBE-β-CD, a polyanionic variably substituted sulfobutyl ether of β-cyclodextrin, (Stella and He, 2008)) in water. Approximately 75 μL of whole blood was obtained at various time points starting 5 to 360 minutes through retro-orbital sinus bleed using hematocrit capillary tubes. Approximated values of the Area Under the Curve (AUC), clearance rate (CL), half-life (T1/2), maximum concentration in the plasma (Cmax) and time to reach the maximum concentration (Tmax) were calculated using Boomer/Multi-Forte P K Functions from Microsoft Excel.
For the DI-39 tumoral and plasma uptake study using LC/MS/MS-MRM, tumor-bearing NSG mice were injected with 50 mg/kg DI-39 intraperitoneally at 0, 2, 4, 8 and 12 hours prior to sacrifice. […] The ion transitions for DI-39 and DI-70 (525.2→383.3 and 550.2→408.2 respectively) were recorded under previously optimized conditions. […]

[3] = Tolerability in NSG mice (body weight, peripheral blood counts); assay type: in vivo; settings: twice/day for 7 days, alone or in combination with dT
Text: All mice were anesthetized and whole blood was obtained through cardiac puncture. For peripheral blood counts, samples were collected in tubes containing EDTA and submitted to UCLA Division of Lab Animal Medicine for analysis.

dCK in CCRF-CEM cells = dCK in CCRF-CEM cells (Homo sapiens, UniProt P27707); assay: cell-based
Description: These were performed in CCRF-CEM acute lymphoblastic leukemia cells as previously described.^8, 9
dCK Uptake Assay Performed in Cell Culture. […] For the uptake assays cells were seeded at a density of 50,000 cells/well in Millipore MultiScreen GV 96 well plates. […] After 1 h at 37° C., cells were washed four times with ice cold phosphate-buffered saline (PBS) using the Millipore Vacuum Manifold. The amount of incorporated probe was measured by scintillation counting with the PerkinElmer Microbeta.

dCK activity in liver = dCK activity in liver (Mus musculus, UniProt P43346); assay: 18F-L-FAC PET liver assay of in vivo dCK inhibition; settings: mice
Description: Evaluation of In Vivo Inhibition of dCK Activity Via a New PET PD Assay. […] Four hours later, treated mice were injected intravenously with ^18F-L-FAC; one hour after probe injection, mice were imaged by mPET/CT. The readout for the PET PD assay was the reduction in the accumulation of ^18F-L-FAC in dCK-positive tissues in dCK inhibitor versus vehicle treated mice. […] Since the reproducibility in the dCK-dependent tissue retention of ^18F-L-FAC was most consistent in the liver^27, we chose to quantify ^18F-L-FAC liver retention in order to compare the in vivo efficacy of the various dCK inhibitors.
In Vivo MicroPET/CT Imaging Studies. […] Four hours post-treatment mice were injected intravenously with 70 μCi of ^18F-L-FAC. For all mPET/CT studies, a 1 h interval was allowed between probe administration and mPET/CT scanning (Inveon, Siemens Medical Solutions USA Inc.; microCAT, Imtek Inc.). Static mPET images were acquired for 600 s. Images were analyzed using OsiriX Imaging Software Version 3.8.

[4] = IC50 (nM), Table 3, inhibition of 3H-deoxycytidine (dCyd) uptake in CEM cells, mean ± SD of n ≥ 2 unless (n = 1)
[5] = IC50, Example 4 list, assay and unit inferred, values correspond to the CEM 3H-dC uptake data of Tables 3 and 7
[6] = IC50, Example 5 list, assay and unit inferred, values correspond to the CEM data of Table 3

Sequence of dCK in CCRF-CEM cells (P27707 whole entry): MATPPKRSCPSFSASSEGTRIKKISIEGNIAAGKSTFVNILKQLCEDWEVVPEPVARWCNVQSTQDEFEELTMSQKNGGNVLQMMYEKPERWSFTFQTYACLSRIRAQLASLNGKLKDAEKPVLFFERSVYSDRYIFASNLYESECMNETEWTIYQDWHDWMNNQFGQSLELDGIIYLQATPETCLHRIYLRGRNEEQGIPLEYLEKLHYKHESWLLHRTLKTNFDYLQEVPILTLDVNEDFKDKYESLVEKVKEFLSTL
Sequence of dCK activity in liver (P43346 whole entry): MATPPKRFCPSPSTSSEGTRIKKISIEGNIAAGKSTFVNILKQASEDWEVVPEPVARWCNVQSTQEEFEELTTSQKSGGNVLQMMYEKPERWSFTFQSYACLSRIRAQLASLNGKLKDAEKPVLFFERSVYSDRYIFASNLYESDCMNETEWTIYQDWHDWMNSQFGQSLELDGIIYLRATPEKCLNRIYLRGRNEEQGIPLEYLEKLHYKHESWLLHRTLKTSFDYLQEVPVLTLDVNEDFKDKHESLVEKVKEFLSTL

| Compound | IC50 (dCK in CCRF-CEM cells; [4]) | IC50 (dCK in CCRF-CEM cells; [5]) | also measured |
| --- | --- | --- | --- |
| COc1ccc(-c2nc(CSc3nc(N)cc(N)n3)c(C)s2)cc1OCCF [Compound 15a, 2-(((2-(3-(2-fluoroethoxy)-4-methoxyphenyl)-5-methylthiazol-4-yl)methyl)thio)pyrimidine-4,6-diamine] | – | – | half-life at 1 μM (in vitro): 16.3 min; microsomal CLint at 1 μM (in vitro): 142 µL/min/mg |
| CCCc1sc(-c2ccc(OC)c(OCCNS(C)(=O)=O)c2)nc1CSc1nc(N)cc(N)n1 [Compound 37, N-(2-(5-(4-(((4,6-diaminopyrimidin-2-yl)thio)methyl)-5-propylthiazol-2-yl)-2-methoxyphenoxy)ethyl)methanesulfonamide] | – | – | decrease of dCTP pool [1]: ~30%; solubility in aqueous saline solutions (Solubility statement): limited solubility; half-life ([2]; female, plasma, C57Bl/6 mice, intraperitoneal injection): ~50 min; concentration at 8 hr ([2]; 8 hr after single dose administration, 50 mg/kg intraperitoneal, CEM tumor-bearing NSG mice, read-out: drug present in tumor tissues): ~15 nM; effect on body weight [3]: did not affect body weight; effects on RBCs, hemoglobin, platelets or neutrophils [3]: no detectable effects |
| CCCc1sc(-c2ccc(N(CCNS(C)(=O)=O)S(C)(=O)=O)c(OCCNS(C)(=O)=O)c2)nc1CSc1nc(N)cc(N)n1 [Compound S2] | 1200 nM | 1200 nM | – |
| CCCc1sc(-c2ccc(OC)c(OCCCF)c2)nc1CSc1nc(N)cc(N)n1 [Compound S3] | 2.5 nM | 2.51 nM | – |
| CCCc1sc(-c2ccc(OCCF)c(OCC)c2)nc1CSc1nc(N)cc(N)n1 [Compound S4] | 2.8 nM | 2.86 nM | – |
| CCCc1sc(-c2ccc(F)c(OCCCF)c2)nc1CSc1nc(N)cc(N)n1 [Compound S5] | 31.7 nM | 31.7 nM | – |
| CCCc1sc(-c2ccc(F)c(OCCF)c2)nc1CSc1nc(N)cc(N)n1 [Compound S6] | 23.3 nM | 23.4 nM | – |
| CCCc1sc(-c2ccnc(OCCF)c2)nc1CSc1nc(N)cc(N)n1 [Compound S7] | 6.8 nM | 6.84 nM | – |
| [2H]C([2H])(Sc1nc(N)cc(N)n1)c1nc(-c2ccnc(OCCF)c2)sc1CCC [Compound S8] | 30 nM | 30 nM | – |
| CCCc1sc(-c2ccc(OC)c(OCCOCCOCCSc3nc(N)cc(N)n3)c2)nc1CSc1nc(N)cc(N)n1 [Compound S10] | 4.7 nM | 4.75 nM | – |
| CCCc1sc(-c2ccc(OC)c(OCCOCCOCCO)c2)nc1CSc1nc(N)cc(N)n1 [Compound S11] | 1.06 nM | 1.06 nM | – |
| COc1ccc(-c2cc(CSc3nc(N)cc(N)n3)c(C)o2)cc1OCCF [Compound S12] | 13500 nM | 13800 nM | – |
| COc1cc(-c2cc(CSc3nc(N)cc(N)n3)c(C)o2)ccc1OCCF [Compound S14] | 276 nM | 276 nM | – |
| CCCc1sc(-c2ccc(OC)c(OCCF)c2)nc1CCc1nc(N)cc(N)n1 [Compound S15] | 664 nM | 664 nM | – |
| CCCc1sc(-c2ccc(OC)c(OCCOCCOCCF)c2)nc1CSc1nc(N)cc(N)n1 [Compound S16] | 4.22 nM | 4.21 nM | – |
| CCCc1sc(-c2cccc(OCCOCCOCCF)c2)nc1CSc1nc(N)cc(N)n1 [Compound S17] | 69.1 nM | 69.1 nM | – |

| Compound | IC50 (dCK in CCRF-CEM cells; [4]) | IC50 (dCK in CCRF-CEM cells; [5]) | also measured |
| --- | --- | --- | --- |
| COc1cc(-c2cc(CSc3nc(N)cc(N)n3)c(C)s2)ccc1OCCF [Compound S18] | 262 nM | 263 nM | – |
| CCCc1sc(-c2cc(F)cc(OCCOCCOCCF)c2)nc1CSc1nc(N)cc(N)n1 [Compound S19] | 33.7 nM | 33.7 nM | – |
| CCCc1sc(-c2ccc(OC)c(OCCOCCOCCOC)c2)nc1CSc1nc(N)cc(N)n1 [Compound S20, 2-(((2-(4-methoxy-3-(2-(2-(2-methoxyethoxy)ethoxy)ethoxy)phenyl)-5-propylthiazol-4-yl)methyl)thio)pyrimidine-4,6-diamine] | 3.31 nM | 3.31 nM | – |
| CCCc1sc(-c2ccc(OCCOCCOCCOC)c(OCC)c2)nc1CSc1nc(N)cc(N)n1 [Compound S21] | 2.37 nM | 2.37 nM | – |
| CCCc1sc(-c2ccc(OC)c(OCCOCCOCCOC)c2)nc1C(C)Sc1nc(N)cc(N)n1 (stereo not drawn) [Compound S22] | 6 nM | – | IC50 (dCK in CCRF-CEM cells; [6]): 6.01 nM |
| COCCOCCOCCOc1cc(-c2nc(C(C)Sc3nc(N)cc(N)n3)c(C)s2)ccc1OC (stereo not drawn) [Compound S23] | 8.03 nM | – | IC50 (dCK in CCRF-CEM cells; [6]): 8.03 nM |
| COCCOCCOCCOc1ccc(-c2nc(C(C)Sc3nc(N)cc(N)n3)c(C)s2)cc1OC (stereo not drawn) [Compound S24] | 6.1 nM | – | IC50 (dCK in CCRF-CEM cells; [6]): 6.12 nM |
| COCCOCCOCCOc1cc(-c2nc(CSc3nc(N)cc(N)n3)c(C3CC3)s2)ccc1OC [Compound S25] | 23 nM | 5.28 nM | – |
| COCCOCCOCCOc1cc(-c2nc(CSc3nc(N)cc(N)n3)c(C)s2)ccc1OC [Compound S26] | 9.1 nM | 9.3 nM | – |
| COCCOCCOCCOc1cc(-c2nc(C(C)Sc3nc(N)cc(N)n3)c(C3CC3)s2)ccc1OC (stereo not drawn) [Compound S27] | 3.7 nM | – | IC50 (dCK in CCRF-CEM cells; [6]): 2.47 nM; outcome in the PET L-FAC liver assay (dCK activity in liver): failed |
| COCCOCCOCCOc1cc(-c2nc(C(C)Sc3nc(N)cc(N)n3)c(-c3ccccc3)s2)ccc1OC (stereo not drawn) [Compound S28] | 98.9 nM | – | – |
| Cc1sc(-c2cc(F)cc(OCCNS(C)(=O)=O)c2)nc1C(C)Sc1nc(N)cc(N)n1 (stereo not drawn) [Compound S31] | 9.07 nM | – | – |
| CCCc1sc(-c2ccc(OC)c(OCCO)c2)nc1CSc1cc(N)nc(N)n1 [DI-42] | – | 330 nM | – |
| CCCc1sc(-c2ccnc(OCCNS(C)(=O)=O)c2)nc1CSc1nc(N)cc(N)n1 [DI-46] | – | 1180 nM | – |
| COc1cc(-c2cc(CSc3nc(N)cc(N)n3)sc2C)ccc1OCCF [DI-63] | – | 1580 nM | – |
| COCCOCCOCCOc1cc(-c2nc(CSc3nc(N)cc(N)n3)c(C(Sc3nc(N)cc(N)n3)c3ccccc3)s2)ccc1OC (stereo not drawn) [DI-78] | – | 1660 nM | – |
